The text below walks through data of patent US6737438B2, “Substituted 1,2,4-trioxanes useful as antimalarial agents and a process for the preparation thereof” (Council of Scientific and Industrial Research, priority 2002, dated 2004).

The structures appear in SMILES notation.

The first assay has as its system multidrug resistant strain of Plasmodium yoelii Nigeriensis. The experiment in a line: Antimalarial activity against multidrug resistant P. yoelii in swiss mice. The following applies: i.m., 96 mg/kg, 4 consecutive days (day 0-3), parasitaemia vs vehicle control. Format: in vivo.
Regarding `C(=CC1COC2(CCCCC2)OO1)c1ccc(C2CCCCC2)cc1` (stereo not drawn) [Trioxane 7bd, 3-[(4′-Cyclohexylphenyl)vinyl]-1,2,5-trioxaspiro(5,5)undecane], the “% Suppression on Day 4” value is 71.73%.
Same read-out and setting: then `CCC1(C)OCC(C=Cc2ccc(C3CCCCC3)cc2)OO1` (stereo not drawn) [Trioxane 7bf], with 71.26%; and `C(=CC1COC2(CCCC2)OO1)c1ccc(C2CCCCC2)cc1` (stereo not drawn) [Trioxane 7bh, 8-[(4′-cyclohexylphenyl)vinyl]-6,7,10-trioxaspiro (4,5) decane], with 100%.
Still for that read-out and setting: then `C=C(c1ccc(C2CCCCC2)cc1)C1COC2(CCC(C(C)(C)CC)CC2)OO1` (stereo not drawn) [Trioxane 7bi], with 53.01%; and `C(=CC1COC2(CCCCC2)OO1)c1ccc(C2CCCCCC2)cc1` (stereo not drawn) [Trioxane 7ca, 3-[(4′-cycloheptylphenyl)vinyl]-1,2,5-trioxaspiro-[5,5]-undecane], with 62.18%; and `C=C(c1ccc(C2CCCCCC2)cc1)C1COC2(CCC(C(C)(C)CC)CC2)OO1` (stereo not drawn) [Trioxane 7cb], with 86.31%.
As to `C=C(c1ccc(C2CCCCCC2)cc1)C1COC2(CCC(c3ccccc3)CC2)OO1` (stereo not drawn) [Trioxane 7cd], the “% Suppression on Day 4” value is 58.17%.
In the case of `C(=CC1COC2(CCCCC2)OO1)c1ccc(C2CCCCCCC2)cc1` (stereo not drawn) [Trioxane 7db, 3-[(4′-cyclooctylphenyl)vinyl]-1,2,5-trioxaspiro-(5,5)-undecane], the “% Suppression on Day 4” value is given as 9.5%.
On the same count and under the same terms, the same measure for `C=C(c1ccc(C2CCCCCCC2)cc1)C1COC2(CCC(c3ccccc3)CC2)OO1` (stereo not drawn) [Trioxane 7dd]: 73.81%; for `C=C(c1ccc(C2CCCCCCC2)cc1)C1COC2(CCC(C(C)(C)CC)CC2)OO1` (stereo not drawn) [Trioxane 7df]: 0%.
On the same count and under the same terms, then `C=C(c1ccc(-c2ccccc2)cc1)C1COC2(CCC(c3ccccc3)CC2)OO1` (stereo not drawn) [Trioxane 7ef], with 42.7%; and `C=C(c1ccc(-c2ccccc2)cc1)C1COC2(CCC(C(C)(C)CC)CC2)OO1` (stereo not drawn) [Trioxane 7eg], with 87.6%.

Still in this assay, the particulars now being: i.m., 96 mg/kg, observed till day 28.
For `C(=CC1COC2(CCCCC2)OO1)c1ccc(C2CCCCC2)cc1` (stereo not drawn) [Trioxane 7bd, 3-[(4′-Cyclohexylphenyl)vinyl]-1,2,5-trioxaspiro(5,5)undecane], the Cured/treated was 0/5.
Take `CCC1(C)OCC(C=Cc2ccc(C3CCCCC3)cc2)OO1` (stereo not drawn) [Trioxane 7bf]: the Cured/treated is given as 0/5.
Same read-out and setting: then `C(=CC1COC2(CCCC2)OO1)c1ccc(C2CCCCC2)cc1` (stereo not drawn) [Trioxane 7bh, 8-[(4′-cyclohexylphenyl)vinyl]-6,7,10-trioxaspiro (4,5) decane], with 1/4.
On the same count and under the same terms, then `C=C(c1ccc(C2CCCCC2)cc1)C1COC2(CCC(C(C)(C)CC)CC2)OO1` (stereo not drawn) [Trioxane 7bi], with 0/5.
With `C(=CC1COC2(CCCCC2)OO1)c1ccc(C2CCCCCC2)cc1` (stereo not drawn) [Trioxane 7ca, 3-[(4′-cycloheptylphenyl)vinyl]-1,2,5-trioxaspiro-[5,5]-undecane], the Cured/treated was 0/5.
On the same count and under the same terms, the same measure for `C=C(c1ccc(C2CCCCCC2)cc1)C1COC2(CCC(C(C)(C)CC)CC2)OO1` (stereo not drawn) [Trioxane 7cb]: 0/5; for `C=C(c1ccc(C2CCCCCC2)cc1)C1COC2(CCC(c3ccccc3)CC2)OO1` (stereo not drawn) [Trioxane 7cd]: 0/5.
The same measure, in the same setting: then `C(=CC1COC2(CCCCC2)OO1)c1ccc(C2CCCCCCC2)cc1` (stereo not drawn) [Trioxane 7db, 3-[(4′-cyclooctylphenyl)vinyl]-1,2,5-trioxaspiro-(5,5)-undecane], with 0/5.
Same read-out and setting: then `C=C(c1ccc(C2CCCCCCC2)cc1)C1COC2(CCC(c3ccccc3)CC2)OO1` (stereo not drawn) [Trioxane 7dd], with 0/5; and `C=C(c1ccc(C2CCCCCCC2)cc1)C1COC2(CCC(C(C)(C)CC)CC2)OO1` (stereo not drawn) [Trioxane 7df], with 0/5; and `C=C(c1ccc(-c2ccccc2)cc1)C1COC2(CCC(c3ccccc3)CC2)OO1` (stereo not drawn) [Trioxane 7ef], with 0/5.
On to `C=C(c1ccc(-c2ccccc2)cc1)C1COC2(CCC(C(C)(C)CC)CC2)OO1` (stereo not drawn) [Trioxane 7eg], for which the Cured/treated is 0/5.

Staying with this assay, now noted: oral, 96 mg/kg, 4 consecutive days (day 0-3), parasitaemia vs vehicle control.
In the case of `C(=CC1COC2(CCCCC2)OO1)c1ccc(C2CCCCC2)cc1` (stereo not drawn) [Trioxane 7bd, 3-[(4′-Cyclohexylphenyl)vinyl]-1,2,5-trioxaspiro(5,5)undecane], the “% Suppression on Day 4” value is 100%.
Consider `CCC1(C)OCC(C=Cc2ccc(C3CCCCC3)cc2)OO1` (stereo not drawn) [Trioxane 7bf], for which the “% Suppression on Day 4” value stood at 100%.
Still for that read-out and setting: the same measure for `C(=CC1COC2(CCCC2)OO1)c1ccc(C2CCCCC2)cc1` (stereo not drawn) [Trioxane 7bh, 8-[(4′-cyclohexylphenyl)vinyl]-6,7,10-trioxaspiro (4,5) decane]: 100%; for `C=C(c1ccc(C2CCCCC2)cc1)C1COC2(CCC(C(C)(C)CC)CC2)OO1` (stereo not drawn) [Trioxane 7bi]: 100%.
Still for that read-out and setting: the same measure for `C(=CC1COC2(CCCCC2)OO1)c1ccc(C2CCCCCC2)cc1` (stereo not drawn) [Trioxane 7ca, 3-[(4′-cycloheptylphenyl)vinyl]-1,2,5-trioxaspiro-[5,5]-undecane]: 100%.
On the same count and under the same terms, the same measure for `C=C(c1ccc(C2CCCCCC2)cc1)C1COC2(CCC(C(C)(C)CC)CC2)OO1` (stereo not drawn) [Trioxane 7cb]: 100%.
Take `C=C(c1ccc(C2CCCCCC2)cc1)C1COC2(CCC(c3ccccc3)CC2)OO1` (stereo not drawn) [Trioxane 7cd]: the “% Suppression on Day 4” value turned out to be 100%.
Same read-out and setting: then `C(=CC1COC2(CCCCC2)OO1)c1ccc(C2CCCCCCC2)cc1` (stereo not drawn) [Trioxane 7db, 3-[(4′-cyclooctylphenyl)vinyl]-1,2,5-trioxaspiro-(5,5)-undecane], with 100%; and `C=C(c1ccc(C2CCCCCCC2)cc1)C1COC2(CCC(c3ccccc3)CC2)OO1` (stereo not drawn) [Trioxane 7dd], with 100%.
Same read-out and setting: the same measure for `C=C(c1ccc(C2CCCCCCC2)cc1)C1COC2(CCC(C(C)(C)CC)CC2)OO1` (stereo not drawn) [Trioxane 7df]: 100%; for `C=C(c1ccc(-c2ccccc2)cc1)C1COC2(CCC(c3ccccc3)CC2)OO1` (stereo not drawn) [Trioxane 7ef]: 100%.
As for `C=C(c1ccc(-c2ccccc2)cc1)C1COC2(CCC(C(C)(C)CC)CC2)OO1` (stereo not drawn) [Trioxane 7eg], the “% Suppression on Day 4” value worked out at 100%.

Still in this assay, the particulars now being: oral, 96 mg/kg, observed till day 28.
Consider `C(=CC1COC2(CCCCC2)OO1)c1ccc(C2CCCCC2)cc1` (stereo not drawn) [Trioxane 7bd, 3-[(4′-Cyclohexylphenyl)vinyl]-1,2,5-trioxaspiro(5,5)undecane], for which the Cured/treated is on record as 5/5.
On the same count and under the same terms, then `CCC1(C)OCC(C=Cc2ccc(C3CCCCC3)cc2)OO1` (stereo not drawn) [Trioxane 7bf], with 0/5; and `C(=CC1COC2(CCCC2)OO1)c1ccc(C2CCCCC2)cc1` (stereo not drawn) [Trioxane 7bh, 8-[(4′-cyclohexylphenyl)vinyl]-6,7,10-trioxaspiro (4,5) decane], with 4/4.
Same read-out and setting: the same measure for `C=C(c1ccc(C2CCCCC2)cc1)C1COC2(CCC(C(C)(C)CC)CC2)OO1` (stereo not drawn) [Trioxane 7bi]: 5/5.
On the same count and under the same terms, the same measure for `C(=CC1COC2(CCCCC2)OO1)c1ccc(C2CCCCCC2)cc1` (stereo not drawn) [Trioxane 7ca, 3-[(4′-cycloheptylphenyl)vinyl]-1,2,5-trioxaspiro-[5,5]-undecane]: 1/5.
On to `C=C(c1ccc(C2CCCCCC2)cc1)C1COC2(CCC(C(C)(C)CC)CC2)OO1` (stereo not drawn) [Trioxane 7cb], for which the Cured/treated is 5/5.
Same read-out and setting: then `C=C(c1ccc(C2CCCCCC2)cc1)C1COC2(CCC(c3ccccc3)CC2)OO1` (stereo not drawn) [Trioxane 7cd], with 2/5; and `C(=CC1COC2(CCCCC2)OO1)c1ccc(C2CCCCCCC2)cc1` (stereo not drawn) [Trioxane 7db, 3-[(4′-cyclooctylphenyl)vinyl]-1,2,5-trioxaspiro-(5,5)-undecane], with 5/5; and `C=C(c1ccc(C2CCCCCCC2)cc1)C1COC2(CCC(c3ccccc3)CC2)OO1` (stereo not drawn) [Trioxane 7dd], with 4/5.
For `C=C(c1ccc(C2CCCCCCC2)cc1)C1COC2(CCC(C(C)(C)CC)CC2)OO1` (stereo not drawn) [Trioxane 7df], the Cured/treated is given as 3/5.
Turning to `C=C(c1ccc(-c2ccccc2)cc1)C1COC2(CCC(c3ccccc3)CC2)OO1` (stereo not drawn) [Trioxane 7ef], the Cured/treated was 2/5.
Consider `C=C(c1ccc(-c2ccccc2)cc1)C1COC2(CCC(C(C)(C)CC)CC2)OO1` (stereo not drawn) [Trioxane 7eg], for which the Cured/treated is listed as 3/5.
